Source: patent US20240293305A1, “COMPOSITION WITH ANTIMICROBIAL OR ANTIFUNGAL ACTIVITY COMPRISING FERMENTED SCUTELLARIA BAICALENSIS EXTRACT, FERMENTED SALVIA MILTIORRHIZA EXTRACT AND FERMENTED DRYPTERIS CCRASSIRHIZOMA EXTRACT” (Sooy-K Co., LTD., priority 2023, published 2024)
Several values for one entry are separate records, joined by “and”; a condition that tells them apart may be missing. Equal entries are not always repeated.

What was measured:
Format in all cases: cell-based
[1] = system: Candida albicans (C. albicans, KCTC 7965); assay: Disc diffusion method, clear zone, C. albicans; details: Table 19 Antibiotic: ketoconazole (200 μg/mL)
Protocol: (§1) As the strains used for antibacterial activity experiments, Gram-positive bacteria Staphylococcus aureus (S. aureus, KCTC 1916), Gram-negative Escherichia coli (E. coli, KCTC 2571), Pseudomonas aeruginosa (P. aeruginosa, KCTC 2513), Candida albicans (C. albicans, KCTC 7965), and Aspergillus niger (A. niger, KCTC 6196), which were purchased from the Korean collection for Type Cultures (KCTC), were stored and used (Table 5). The inhibitory zones of the extracts were measured by a test method of antibacterial activity to determine the presence or absence of antibacterial activity and to compare the degree of effectiveness of the extracts against the proliferation of bacteria. The antibacterial activity was measured by the disc diffusion method using a paper disc (size: 8 mm, Advantec, Toyo Roshi Kaisha, Ltd., Tokyo, Japan). The strains were each inoculated in an amount of one platinum loop, diluted in 4 mL of sterile water, mixed with a sterilized medium, and the mixture was poured into a prepared plate to be hardened. A 3% extract each was filtered (pore size: 0.4 μm, Advantec MFS, Inc., Tokyo, Japan), and 40 μL was taken and allowed to be absorbed onto a paper disc. After culturing for 24 hours at an appropriate temperature for each strain, the size of the transparent ring formed around the paper disc was measured. [table]

[2] = system: Aspergillus niger (A. niger, KCTC 6196); assay: Disc diffusion method, clear zone, A. niger; details: KCTC6196, Table 19 Antibiotic: ketoconazole (200 μg/mL), read-out: Clear zone (ø, mm) A. niger
Protocol: as §1

[3] = system: Escherichia coli (E. coli, KCTC 2571); assay: Disc diffusion method, clear zone, E. coli
Protocol: as §1

[4] = system: Staphylococcus aureus (S. aureus, KCTC 1916); assay: Disc diffusion method, clear zone, S. aureus
Protocol: as §1

[5] = system: Pseudomonas aeruginosa (P. aeruginosa, KCTC 2513); assay: Disc diffusion method, clear zone, P. aeruginosa; details: KCTC2513, Control Group Antibiotic: tetracycline (50 μg/mL), read-out: Clear Zone (ø, mm) P. aeruginosa
Protocol: as §1

**Q.** For `CC(=O)N1CCN(c2ccc(OCC3COC(Cn4ccnc4)(c4ccc(Cl)cc4Cl)O3)cc2)CC1` (centres unmarked) [ketoconazole], which “Clear zone (ø, mm) C. albicans” value [1] is on record?
**A.** Its value is “no antibacterial activity”.

**Q.** And the zone of inhibition at 200 µg/mL [2]?
**A.** The zone of inhibition at 200 µg/mL was 13.2 mm.

**Q.** For `CN(C)[C@@H]1C(O)=C(C(N)=O)C(=O)[C@@]2(O)C(O)=C3C(=O)c4c(O)cccc4[C@@](C)(O)[C@H]3C[C@@H]12` [tetracycline], which “Clear Zone (ø, mm) E. coli” value ([3]; Control Group Antibiotic: tetracycline (50 μg/mL)) is on record?
**A.** The value was 19.6 mm and 18.2 mm and 18.5 mm and 20.7 mm and 15.7 mm and 17.8 mm and 14.2 mm.

**Q.** And the zone of inhibition at 50 µg/mL ([3]; Escherichia coli, KCTC2571, Control Group Antibiotic: tetracycline (50 μg/mL), read-out: Clear Zone (ø, mm) E. coli)?
**A.** The zone of inhibition at 50 µg/mL was 25.6 mm.

**Q.** What about the zone of inhibition at 100 µg/mL ([3]; Escherichia coli, KCTC2571, Table 19 Antibiotic: tetracycline (100 μg/mL), read-out: Clear zone (ø, mm) E. coli) of the same compound?
**A.** Its zone of inhibition at 100 µg/mL is 14.2 mm.

**Q.** And the zone of inhibition at 50 µg/mL ([4]; KCTC1916, Control Group Antibiotic: tetracycline (50 μg/mL), read-out: Clear Zone (ø, mm) S. aureus)?
**A.** Its zone of inhibition at 50 µg/mL is 22.8 mm.

**Q.** And the zone of inhibition at 100 µg/mL ([4]; KCTC1916, Table 19 Antibiotic: tetracycline (100 μg/mL), read-out: Clear zone (ø, mm) S. aureus)?
**A.** The zone of inhibition at 100 µg/mL was 18.2 mm.

**Q.** And the zone of inhibition at 50 µg/mL [5]?
**A.** The zone of inhibition at 50 µg/mL was 9 mm.
